Measurements reported in patent US20210253560A1, “PLANT GROWTH REGULATING COMPOUNDS” (SYNGENTA PARTICIPATIONS AG, priority 2018, published 2021).
Where two headings read alike, the source gives them in different places.

Test system: corn leaf
Assay: Dark induced senescence of corn leaf (leaf discs, image analysis)
Type: in vivo, corn (variety Multitop)
Conditions: 100 μM-0.0001 μM, 23° C., up to 8 days, 12 replicates, read-out: IC50 for dark induced senescence of corn leaf (concentration at which 50% senescence was achieved)
Description: It is known that strigolactones regulate (accelerate) leaf senescence, potentially through D14 receptor signaling. Compounds of the present invention (IA) were compared to structurally-related compounds (P) in a corn leaf dark induced senescence assay. Corn plants of variety Multitop were grown in a greenhouse with relative 75% humidity and at 23-25° C. for 6 weeks. 1.4 cm diameter leaf discs were placed into 24-well plates containing a test compounds in a concentration gradient (100 μM-0.0001 μM) at a final concentration of 0.5% DMSO. Each concentration was tested in 12 replicates. Plates were sealed with seal foil. The foil was pierced to provide gas exchange in each well. The plates were placed into the completely dark climatic chamber. Plates were incubated in the chamber with 75% humidity and at 23° C. for 8 days. On days 0, 5, 6, 7 and 8 photographs were taken of each plates, and image analysis conducted with a macro developed using the ImageJ software. The image analysis was used to determine the concentration at which 50% senescence was achieved (IC50), see Table 3. The lower the value, the higher senescence induction potency.

Row | Structure (SMILES) | IC50 | IC50 (Zea mays, foliar, 192 h)
1 | CC1=CC(OC=C2C(=O)N(CC#N)C3c4ccccc4CC23)OC1=O (stereo not drawn) [Compound P6-Z] | 0.074 µM | –
2 | CC1=C(C)C(O/C=C2/C(=O)N(CC#N)C3c4ccccc4CC23)OC1=O (stereo not drawn) [IA-10-E] | – | 0.155 µM
3 | CC1=C(C)C(O/C=C2\C(=O)N(CC#N)C3c4ccccc4CC23)OC1=O (stereo not drawn) [IA-10-Z, 2-[(3Z)-3-[(3,4-dimethyl-5-oxo-2H-furan-2-yl)oxymethylene]-2-oxo-4,8b-dihydro-3aH-indeno[1,2-b]pyrrol-1-yl]acetonitrile] | – | 0.07 µM

The next lines start with the values.

Row | IC50 | IC50 (Zea mays, foliar, 192 h) | Structure (SMILES)
4 | 7.2 µM | – | CC1=CC(OC=C2C(=O)N(CC#N)C3c4ccccc4CC23)OC1=O (stereo not drawn) [Compound P3]
5 | – | 0.17 µM | CC1=C(C)C(O/C=C2/C(=O)N(c3ccccc3)C3c4ccccc4CC23)OC1=O (stereo not drawn) [IA-8, (3E)-3-[(3,4-dimethyl-5-oxo-2H-furan-2-yl)oxymethylene]-1-phenyl-4,8b-dihydro-3aH-indeno[1,2-b]pyrrol-2-one]
6 | 2.47 µM | – | CC1=CC(OC=C2C(=O)N(CC#N)C3c4ccccc4CC23)OC1=O (stereo not drawn) [Compound P4]
7 | 9.7 µM | – | CC1=CC(OC=C2C(=O)N(CC#N)C3c4ccccc4CC23)OC1=O (stereo not drawn) [Compound P2]
8 | 0.11 µM | – | CC1=CC(OC=C2C(=O)N(CC#N)C3c4ccccc4CC23)OC1=O (stereo not drawn) [Compound P1]
9 | – | 0.03 µM | CC(=O)N1C(=O)/C(=C/OC2OC(=O)C(C)=C2C)C2Cc3ccccc3C21 (stereo not drawn) [IA-1, (3E)-1-acetyl-3-[(3,4-dimethyl-5-oxo-2H-furan-2-yl)oxymethylene]-4,8b-dihydro-3aH-indeno[1,2-b]pyrrol-2-one]
